Reference: patent US7723347B2, “Substituted phenylamino-pyrimidines” (Bayer Schering Pharma Aktiengesellschaft, priority 2004, dated 2010)

Key:
[1] = tested on: isolated rings of the saphenous artery of rabbits; assay: Vessel-relaxing action in vitro, phenylephrine-induced contractions of isolated saphenous artery rings; conditions: Oryctolagus cuniculus; concentration reducing phenylephrine-induced contraction (3×10^−8 g/ml) of rabbit saphenous artery rings by 50%
Procedure: (§1) The inhibition of the enzyme is investigated in an in vitro assay with recombinant Rho kinase II. The vessel-relaxing action is determined using phenylephrine-induced contractions of isolated rings of the saphenous artery of rabbits.
Vessel-Relaxing Action In Vitro
Individual 3-mm-wide rings of the isolated saphenous artery of rabbits are introduced into 5 ml organ baths with Krebs-Henseleit solution (37° C., gassed with carbogen). The vessel tone is monitored isometrically and registered. Contractions are induced by addition of 3×10^−8 g of phenylephrine/ml, which is washed out again after 4 min. After a number of control cycles, the rings are pre-incubated with the substance to be examined, with the dosage being increased for each further cycle, and the subsequent contraction is compared to the intensity of the last control contraction. The concentration required to reduce the intensity of the control value by 50% (IC50) is calculated.

[2] = molecular target: recombinant Rho kinase II (ROKα) (UniProt Q62868); assay: Inhibition of recombinant Rho kinase II (ROKα), 33P uptake into S6 substrate peptide; format: biochemical; conditions: Rho-kinase-catalyzed uptake of 33P into S6 peptide, 37° C., vs solvent control
Procedure: as §1
Inhibition of Recombinant Rho Kinase II (ROKα)
The activity of Rho kinase is determined by the uptake of ^33P phosphate into a substrate peptide. To this end, commercially available Rho kinase II (Upstate Biotechnology) is pre-incubated at 37° C. in the presence of the S6 phosphate-acceptor peptide with the test substances or a solvent control for 10 min. The kinase reaction is then started by addition of ^33P-labeled ATP. After 20 min at 37° C., the reaction is stopped by addition of H3PO4. Aliquots are pipetted onto filters and the filters are washed and then covered with scintillator. The radioactivity of the ^33P-labeled peptides bound to the filter is measured in a Micro-Beta counter. The IC50 value corresponds to the concentration of a test substance at which the Rho-kinase-catalyzed uptake of ^33P into the peptide is inhibited by 50%, compared to a solvent control.

| IC50 [1] [nM] | IC50 [2] [nM] | SMILES |
| --- | --- | --- |
| 86 | 7 | Nc1nc(Nc2ccc(Cc3ccnc4[nH]ccc34)c(F)c2)cc(C(F)(F)F)n1 [Example 8, N^4-[3-Fluoro-4-(1H-pyrrolo[2,3-b]pyridin-4-ylmethyl)phenyl]-6-(trifluoromethyl)pyrimidine-2,4-diamine] |
| 3 | 4 | Cc1c[nH]c2nccc(Nc3ccc(Nc4cc(C(F)(F)F)nc(N)n4)cc3F)c12 [Example 11, N^4-{3-Fluoro-4-[(3-methyl-1H-pyrrolo[2,3-b]pyridin-4-yl)amino]phenyl}-6-(trifluoromethyl)pyrimidine-2,4-diamine] |
| 8 | 3 | Cc1c[nH]c2nccc(Nc3ccc(Nc4cc(Cl)nc(N)n4)cc3F)c12 [Example 10, 6-Chloro-N^4-{3-fluoro-4-[(3-methyl-1H-pyrrolo[2,3-b]pyridin-4-yl)amino]phenyl}pyrimidine-2,4-diamine] |
